{
  "source": "patent US20250049948A1",
  "about": "“NOVEL IONIZABLE LIPIDS AND LIPID NANOPARTICLES AND METHODS OF USING THE SAME” (Sail Biomedicines, Inc., priority 2021, published 2025)",
  "key": {"[1]": {"experiment": "LNP size and polydispersity, Zetasizer Ultra", "assay_type": "physicochemical", "protocol": "(§1) For each LNP composition, the lipid mix and mRNA solution were mixed at a 1:3 ratio by volume, respectively, on a NanoAssemblr Ignite (Precision Nanosystems) at a total flow rate of 9 mL/min. The resulting compositions were then loaded into Slide-A-Lyzer G2 dialysis cassettes (10 k MWCO) and dialyzed in 200 times sample volume of 1×PBS for 2 hours at room temperature with gentle stirring. The PBS was refreshed, and the compositions were further dialyzed for at least 14 hours at 4° C. with gentle stirring. The dialyzed compositions were then collected and concentrated by centrifugation at 3000×g using Amicon Ultra centrifugation filters (100 k MWCO). The concentrated particles were characterized for size, polydispersity, and particle concentration using Zetasizer Ultra (Malvern Panalytical) and for mRNA encapsulation efficiency using Quant-iT RiboGreen RNA Assay Kit (ThermoFisher Scientific)."}, "[2]": {"experiment": "mRNA encapsulation efficiency, Quant-iT RiboGreen RNA Assay", "assay_type": "physicochemical", "protocol": "as §1"}, "[3]": {"system": "Balb/c mice", "experiment": "EPO levels in plasma, EPO MSD kit (Example 6)", "assay_type": "in vivo", "conditions": "mRNA dose 5 μg FLUC + 5 μg EPO, intravenous"}, "[4]": {"system": "Balb/c mice", "experiment": "In-vivo bioluminescent imaging of LNP compositions (Example 6)", "conditions": "for Bioluminescence (IV) Liver / Bioluminescence (IV) Lung / Bioluminescence (IV) Spleen / Bioluminescence (IV) Whole Body: 4-6 hours post-dose; for Spleen: Liver Ratio: intravenous"}, "[5]": {"conditions": "mRNA dose 5 μg FLUC (CRE/FLUC 1:1 LNP)"}},
  "data": [
    {"smiles": "CCCCCCC(CCCCCC)CCCOC(=O)CCCCCCCN(CCCCCCCC(=O)OCCCC(CCCCCC)CCCCCC)C(=O)CCN1CCCC1", "note": "[Compound 2142, bis(4-hexyldecyl) 8,8′-((3-(pyrrolidin-1-yl)propanoyl)azanediyl) dioctanoate]", "values": [
      {"measurement": "PDI", "setting": "[1]; LNP with FLUC/EPO 1:1 mRNA", "result": 0.06},
      {"measurement": "Size (nm)", "setting": "[1]; LNP with FLUC/EPO 1:1 mRNA", "result": 69.2, "unit": "nm"},
      {"measurement": "% EE", "setting": "[2]; LNP with FLUC/EPO 1:1 mRNA", "result": 96.7, "unit": "%"},
      {"measurement": "hEPO", "setting": "[3]", "result": 7.3, "unit": "E + 03"},
      {"measurement": "Bioluminescence (IV) Liver", "setting": "[4]; mRNA dose 5 μg FLUC + 5 μg EPO", "result": 2.4, "unit": "E + 05"},
      {"measurement": "Bioluminescence (IV) Lung", "setting": "[4]; mRNA dose 5 μg FLUC + 5 μg EPO", "result": 2.0, "unit": "E + 05"},
      {"measurement": "Bioluminescence (IV) Spleen", "setting": "[4]; mRNA dose 5 μg FLUC + 5 μg EPO", "result": 5.6, "unit": "E + 05"},
      {"measurement": "Bioluminescence (IV) Whole Body", "setting": "[4]; mRNA dose 5 μg FLUC + 5 μg EPO", "result": 7.8, "unit": "E + 05"},
      {"measurement": "Spleen: Liver Ratio", "setting": "[4]; mRNA dose 5 μg FLUC + 5 μg EPO", "result": 2.758}
    ]},
    {"smiles": "CCCCCC(CCCCC)CCCNC(=O)CCCCCCCN(CCCCCCCC(=O)NCCCC(CCCCC)CCCCC)C(=O)CCN1CCCC1", "note": "[Compound 2241, 8-(N-(8-oxo-8-((4-pentylnonyl)amino)octyl)-3-(pyrrolidin-1-yl)propanamido)-N-(4-pentylnonyl) octanamide]", "values": [
      {"measurement": "PDI", "setting": "[1]; LNP with FLUC/EPO 1:1 mRNA", "result": 0.15},
      {"measurement": "Size (nm)", "setting": "[1]; LNP with FLUC/EPO 1:1 mRNA", "result": 100.89, "unit": "nm"},
      {"measurement": "% EE", "setting": "[2]; LNP with FLUC/EPO 1:1 mRNA", "result": 94.7, "unit": "%"},
      {"measurement": "hEPO", "setting": "[3]", "result": 1.6, "unit": "E + 03"},
      {"measurement": "Bioluminescence (IV) Liver", "setting": "[4]; mRNA dose 5 μg FLUC + 5 μg EPO", "result": 3.5, "unit": "E + 03"},
      {"measurement": "Bioluminescence (IV) Lung", "setting": "[4]; mRNA dose 5 μg FLUC + 5 μg EPO", "result": 5.4, "unit": "E + 04"},
      {"measurement": "Bioluminescence (IV) Spleen", "setting": "[4]; mRNA dose 5 μg FLUC + 5 μg EPO", "result": 7.6, "unit": "E + 04"},
      {"measurement": "Bioluminescence (IV) Whole Body", "setting": "[4]; mRNA dose 5 μg FLUC + 5 μg EPO", "result": 3.1, "unit": "E + 04"},
      {"measurement": "Spleen: Liver Ratio", "setting": "[4]; mRNA dose 5 μg FLUC + 5 μg EPO", "result": 22.241}
    ]},
    {"smiles": "CCCCCC(CCCCC)CCCOC(=O)CCCCCCCN(CCCCCCCC(=O)OCCCC(CCCCC)CCCCC)C(=O)CCCN(C)C", "note": "[Compound 2132, bis(4-pentylnonyl) 8,8′-((4-(dimethylamino)butanoyl)azanediyl) dioctanoate]", "values": [
      {"measurement": "PDI", "setting": "[1]; LNP with CRE/FLUC 1:1 mRNA", "result": 0.13},
      {"measurement": "Size (nm)", "setting": "[1]; LNP with CRE/FLUC 1:1 mRNA", "result": 76.3, "unit": "nm"},
      {"measurement": "PDI", "setting": "[1]; LNP with EGFP mRNA", "result": 0.20},
      {"measurement": "Size (nm)", "setting": "[1]; LNP with EGFP mRNA", "result": 90.4, "unit": "nm"},
      {"measurement": "% EE", "setting": "[2]; LNP with CRE/FLUC 1:1 mRNA", "result": 97.7, "unit": "%"},
      {"measurement": "% EE", "setting": "[2]; LNP with EGFP mRNA", "result": 97.2, "unit": "%"},
      {"measurement": "Bioluminescence (IV) Liver", "setting": "[4]; [5]", "result": 1.4, "unit": "E + 05"},
      {"measurement": "Bioluminescence (IV) Lung", "setting": "[4]; [5]", "result": 1.7, "unit": "E + 03"},
      {"measurement": "Bioluminescence (IV) Spleen", "setting": "[4]; [5]", "result": 2.5, "unit": "E + 04"},
      {"measurement": "Bioluminescence (IV) Whole Body", "setting": "[4]; [5]", "result": 7.0, "unit": "E + 03"},
      {"measurement": "Spleen: Liver Ratio", "setting": "[4]; [5]", "result": 0.212}
    ]},
    {"smiles": "CCCCCCC(CCCCCC)CCCOC(=O)CCCCCCCN(CCCCCCCC(=O)OCCCC(CCCCCC)CCCCCC)CCCCN(C)C", "note": "[Compound 2130, bis(4-hexyldecyl) 8,8′-((4-(dimethylamino)butyl)azanediyl) dioctanoate]", "values": [
      {"measurement": "PDI", "setting": "[1]; LNP with FLUC/EPO 1:1 mRNA", "result": 0.13},
      {"measurement": "Size (nm)", "setting": "[1]; LNP with FLUC/EPO 1:1 mRNA", "result": 68.7, "unit": "nm"},
      {"measurement": "% EE", "setting": "[2]; LNP with FLUC/EPO 1:1 mRNA", "result": 98.5, "unit": "%"},
      {"measurement": "hEPO", "setting": "[3]", "result": 1.5, "unit": "E + 02"},
      {"measurement": "Bioluminescence (IV) Liver", "setting": "[4]; mRNA dose 5 μg FLUC + 5 μg EPO", "result": 7.0, "unit": "E + 04"},
      {"measurement": "Bioluminescence (IV) Lung", "setting": "[4]; mRNA dose 5 μg FLUC + 5 μg EPO", "result": 1.4, "unit": "E + 05"},
      {"measurement": "Bioluminescence (IV) Spleen", "setting": "[4]; mRNA dose 5 μg FLUC + 5 μg EPO", "result": 3.0, "unit": "E + 03"},
      {"measurement": "Bioluminescence (IV) Whole Body", "setting": "[4]; mRNA dose 5 μg FLUC + 5 μg EPO", "result": 1.2, "unit": "E + 04"},
      {"measurement": "Spleen: Liver Ratio", "setting": "[4]; mRNA dose 5 μg FLUC + 5 μg EPO", "result": 0.045}
    ]},
    {"smiles": "CCCCCCC(CCCCCC)CCCOC(=O)CCCCCN(CCCCCC(=O)OCCCC(CCCCCC)CCCCCC)CCCCN(C)C", "note": "[Compound 2131, bis(4-hexyldecyl) 6,6′-((4-(dimethylamino)butyl)azanediyl) dihexanoate]", "values": [
      {"measurement": "PDI", "setting": "[1]; LNP with CRE/FLUC 1:1 mRNA", "result": 0.13},
      {"measurement": "Size (nm)", "setting": "[1]; LNP with CRE/FLUC 1:1 mRNA", "result": 71.2, "unit": "nm"},
      {"measurement": "% EE", "setting": "[2]; LNP with CRE/FLUC 1:1 mRNA", "result": 97.1, "unit": "%"},
      {"measurement": "Bioluminescence (IV) Liver", "setting": "[4]; [5]", "result": 1.3, "unit": "E + 05"},
      {"measurement": "Bioluminescence (IV) Lung", "setting": "[4]; [5]", "result": 2.4, "unit": "E + 03"},
      {"measurement": "Bioluminescence (IV) Spleen", "setting": "[4]; [5]", "result": 9.5, "unit": "E + 03"},
      {"measurement": "Bioluminescence (IV) Whole Body", "setting": "[4]; [5]", "result": 1.2, "unit": "E + 04"},
      {"measurement": "Spleen: Liver Ratio", "setting": "[4]; [5]", "result": 0.076}
    ]},
    {"smiles": "CCCCCCC(CCCCCC)CCCOC(=O)CCCCCCCN(CCCCCCCC(=O)OCCCC(CCCCCC)CCCCCC)CCC(O)CN(C)C", "note": "(stereo not drawn) [Compound 2139, bis(4-hexyldecyl) 8.8′-((4-(dimethylamino)-3-hydroxybutyl)azanediyl) dioctanoate]", "values": [
      {"measurement": "PDI", "setting": "[1]; LNP with FLUC/EPO 1:1 mRNA", "result": 0.18},
      {"measurement": "Size (nm)", "setting": "[1]; LNP with FLUC/EPO 1:1 mRNA", "result": 88.6, "unit": "nm"},
      {"measurement": "% EE", "setting": "[2]; LNP with FLUC/EPO 1:1 mRNA", "result": 98.3, "unit": "%"},
      {"measurement": "hEPO", "setting": "[3]", "result": 2.0, "unit": "E + 02"},
      {"measurement": "Bioluminescence (IV) Liver", "setting": "[4]; mRNA dose 5 μg FLUC + 5 μg EPO", "result": 1.7, "unit": "E + 05"},
      {"measurement": "Bioluminescence (IV) Lung", "setting": "[4]; mRNA dose 5 μg FLUC + 5 μg EPO", "result": 2.2, "unit": "E + 05"},
      {"measurement": "Bioluminescence (IV) Spleen", "setting": "[4]; mRNA dose 5 μg FLUC + 5 μg EPO", "result": 1.0, "unit": "E + 05"},
      {"measurement": "Bioluminescence (IV) Whole Body", "setting": "[4]; mRNA dose 5 μg FLUC + 5 μg EPO", "result": 4.1, "unit": "E + 04"},
      {"measurement": "Spleen: Liver Ratio", "setting": "[4]; mRNA dose 5 μg FLUC + 5 μg EPO", "result": 0.583}
    ]},
    {"smiles": "CCCCCC(CCCCC)CCCOC(=O)CCCCCCCN(CCCCCCCC(=O)OCCCC(CCCCC)CCCCC)CCC(O)CN(C)C", "note": "(stereo not drawn) [Compound 2138, bis(4-pentylnonyl) 8,8′-((4-(dimethylamino)-3-hydroxybutyl)azanediyl) dioctanoate]", "values": [
      {"measurement": "PDI", "setting": "[1]; LNP with CRE/FLUC 1:1 mRNA", "result": 0.35},
      {"measurement": "Size (nm)", "setting": "[1]; LNP with CRE/FLUC 1:1 mRNA", "result": 112.7, "unit": "nm"},
      {"measurement": "% EE", "setting": "[2]; LNP with CRE/FLUC 1:1 mRNA", "result": 97, "unit": "%"},
      {"measurement": "Bioluminescence (IV) Liver", "setting": "[4]; [5]", "result": 1.7, "unit": "E + 05"},
      {"measurement": "Bioluminescence (IV) Lung", "setting": "[4]; [5]", "result": 1.2, "unit": "E + 03"},
      {"measurement": "Bioluminescence (IV) Spleen", "setting": "[4]; [5]", "result": 2.8, "unit": "E + 04"},
      {"measurement": "Bioluminescence (IV) Whole Body", "setting": "[4]; [5]", "result": 3.7, "unit": "E + 03"},
      {"measurement": "Spleen: Liver Ratio", "setting": "[4]; [5]", "result": 0.236}
    ]}
  ]
}
